# Patent publication US20260306633A1, “A COMBINATION THERAPY FOR CANCER TREATMENT” (Purdue Research Foundation, priority 2023, published 2026)
# Values joined by “and” are separate entries in the source; they are usually repeats but may differ in a detail not shown here. Equal values may be shown once. “Also recorded” adds a separate entry of the source.
# Key:
# TNBC BT-549 cells = assay: Cell survival / cell inhibition (MTT cell cytotoxicity assay) after 24 h treatment with photosensitizer and/or chemotherapeutic agent, dark or light-irradiated; type: cell-based, human
# Protocol: Human mammary epithelial carcinoma cell lines purchased from the American Type Culture Collection BT-549 (ATCC HTB-122) were cultured according to ATCC protocol. BT-549 cells were grown in RPMI 1640 containing 0.023 IU/mL insulin and supplemented with 10% fetal bovine serum (FBS). Cells were grown to 80-90% confluence in 75-cm^2 culture flasks (Corning) for 4-5 days in a humidified incubator (Fisher Scientific Isotemp) with 5% CO2 at 37° C. During the incubation period, growth media was changed once with fresh pre-warmed media (pH 7.2). To harvest the cells, old growth media was aspirated out, and 3 mL 0.25% trypsin solution (Thermo Sci Hyclone) were added. The cells were incubated for 5 minutes, and the cell pellet after centrifugation was resuspended in 3 mL media, broken up gently, then 1 mL of suspended cells was transferred into a new T75 cell culture flask containing pre-warmed media (20 mL) for further culturing.
# (§1) Cells were grown to confluence in a 96-well plate (9×10^3 cells/well) and co-treated for 24 hours with synthesized photosensitizers (PSs) and chemotherapeutic agents of varying concentrations ranging from 5 nM to 50 μM) in growth media from a stock solution of 10 mM in DMSO (dimethyl sulfoxide, Fisher). After 24-hour treatment, old growth media containing the PSs or compounds were aspirated out and replaced with fresh media. Plates were then positioned below a non-coherent LumaCare LC-122 650 nm light source for 1 minute at an energy fluence rate of 0.96 J/cm^2 and a power of 16 mW/cm^2 (measured using a Newport optical power meter Model 840). Unirradiated cells served as control samples. The following day, cells were washed with pre-warmed PBS, and 11MTT (3-[4,5-dimethyl-thiazol-2-yl]-2.5-diphenyltetrazolium bromide, Sigma, 0.3 mg/mL) in PBS was added to each well. Samples were allowed to incubate for additional 2 hours, after which dark blue crystals formed. DMSO was added to each well and plates were shaken at room temperature for 1 hour to dissolve the purplish-blue formazan crystals. Absorbance values at 570 nm were measured on a microplate reader (BioRad 550). Cell survival was calculated based on the absorbance of the untreated cells alone (as control) and were directly proportional to the number of viable cells in culture. Results were reported as the mean±SD of triplicate measurements.
# The unmetallated PS and the indium complexes were used.
# Light dose corresponds to an energy fluence rate of 0.96 J/cm^2 used.
# Power of 16 mW/cm^2 used.
# Cell inhibition in TNBC cells is based on the cell survival (MTT) assay of the binary therapy, blending the effect of PDT and chemotherapeutic agents. […] MePheo serves as a control compound. TNBC cells were then exposed to light after binary treatment for 24 hours.
# TNBC cells [1] = assay: Combination index (CI) of binary therapy, Chou-Talalay method, CompuSyn software; type: cell-based, human; conditions: PS 50 nM + methotrexate 500 μM (footnote 500 nM)
# TNBC cells [2] = assay: as above; type: cell-based, human
# Protocol: (§2) The calculated CI values are based on 50 nM concentration for the PSs, 50 nM paclitaxel, 500 nM doxorubicin, 25 μM cisplatin, 25 μM fluorouracil, and 500 nM methotrexate.
# as §1
# The combination index (CI) for the binary treatment of TNBC cells with a PS and a chemotherapeutic drug was calculated based on the Chou-Talalay method using CompuSyn software. […] The unified dynamics algorithm uses a minimum of dose-data points to fit the general MAL theory.
# as §2
# human TNBC BT-549 cells = assay: Fluorescence microscopy (Hoechst 33258) of cell morphology / cell death pathway; type: cell-based
# Protocol: Grayscale images of cells stained with Hoechst 33258. Morphology of (A) untreated unirradiated cells, sham control; (B) illuminated cells; (C-E) cells treated with: PSs (InCLA, CBTN, and CPA) and paclitaxel in the dark; (F-H) PSs, followed by 1 minute light exposure; (I) paclitaxel unirradiated; (J-L) PSs and paclitaxel in the dark; (M-O) PSs co-treated with paclitaxel, then light-exposed; (P-Q) PSs co-treated with doxorubicin, then irradiated; (R) PSs and cisplatin, dark; (S-T) PSs and cisplatin, irradiated; (U) fluorouracil, dark; (V) InCLA with fluorouracil in the dark; (W) light-exposed and, (X-Y) PSs with methotrexate with light. Inserts indicate enlarged view. […] Light dose in 1 minute=0.96 J cm^−2; in 30 seconds=0.48 J cm^−2. Concentrations: PSs=50 nM; paclitaxel=50 nM; doxorubicin=500 nM; cisplatin=25 μM; fluororuracil=25 μM; and, methotrexate=500 nM.
# Cells (1 mL aliquots) obtained from a diluted cell suspension were seeded into each well (1.7 cm^2, 8×10^3 cells/well) of a 4-well culture slide (BD Biosciences) and grown to confluence in 5% CO2 at 37° C. for 3-4 days for attachment to the substratum. After aspirating the old growth media, 1 mL of the photosensitizer and chemotherapeutic agents (with appropriate concentrations) in fresh pre-warmed media at 37° C. was added to each well. After compound treatment for 24 hours, cells were washed twice with 1 mL fresh growth media, and then irradiated with light using LumaCare LC-122 as described above. Cells were stained in the dark with Hoechst 33258 (Molecular Probes) in pre-warmed media for 10 minutes at 37° C., washed twice with filtered PBS, then fixed with filtered paraformaldehyde for 15 minutes in the incubator. After thorough liquid aspiration, the wells were removed and allowed to air dry in the dark for 1 hour. Slides were protected with coverslips, whose edges were sealed using clear fast-drying nail polish and allowed to dry at room temperature in the dark for 30 minutes. Images were recorded using fluorescence microscopy (DAPI for Hoechst 350-390 nm excitation and 460-490 nm emission filters) using an upright fluorescence microscope with Retiga imaging 2000R (Nikon Optiphot-2, 20× and 40×) and an image processing Nikon NIS-Elements V4.0 Qimaging software.
# To determine the preferred cell death pathway for the binary chemophotodynamic therapy, tracking the hallmarks of apoptosis or necrosis was accomplished using a nuclear stain to monitor chromatin condensation and cellular contraction. TNBC cells are spindle-shaped and nearly round with intact cytoplasm, diffused chromatin, distinct cellular membrane, and large oval nuclei staining dark blue with the nuclear stain (FIG. 18A-B).
# [3] = PS 100 nM + fluorouracil 25 μM, light
structure (smiles),measurement,setting,value
"C=Cc1c(C)c2cc3nc(c(CC(=O)OC)c4[nH]c(cc5nc(cc1[nH]2)C(C)=C5CC)c(C)c4C(=O)NCCCCCCNC(=O)CCCCC1SCC2NC(=O)NC21)C(CCC(=O)OC)C3C (stereo not shown) [CBTN, chlorin biotin conjugate]","cell inhibition (%), combination with cisplatin","TNBC BT-549 cells; PS 100 nM + cisplatin 25 μM, 24 h, light 0.96 J cm−2",53%
same,effect of added cisplatin compared to cisplatin-treated cell viability,"TNBC BT-549 cells; PS 100 nM + cisplatin 25 μM, light",reduced cell survival
same,"cell survival, co-treatment with doxorubicin in the dark","TNBC BT-549 cells; PS 100 nM + doxorubicin 500 nM, 24 h, dark",51%
same,"cell inhibition (%), combination with doxorubicin","TNBC BT-549 cells; PS 100 nM + doxorubicin 500 nM, 24 h, light 0.96 J cm−2",64%
same,"cell survival, co-treatment with doxorubicin upon light","TNBC BT-549 cells; PS 100 nM + doxorubicin 500 nM, light, 1440 min, 0.1 µM",35% and 36%
same,best combination partner,"TNBC BT-549 cells; PS 100 nM + drug, light","with paclitaxel followed by doxorubicin or fluorouracil; also recorded: with paclitaxel, followed by doxorubicin or fluorouracil"
same,"cell inhibition (%), combination with fluorouracil","TNBC BT-549 cells; PS 100 nM + fluorouracil 25 μM, 24 h, light 0.96 J cm−2",64%
same,cell viability reduction (difference) vs PS alone,TNBC BT-549 cells; [3],46%
same,effect of added fluorouracil compared to fluorouracil-treated cell viability,TNBC BT-549 cells; [3],reduced cell survival
same,"cell survival, co-treatment with fluorouracil upon light","TNBC BT-549 cells; PS 100 nM + fluorouracil 25 μM, light, 1440 min",36%
same,"cell survival, co-treatment with methotrexate in the dark","TNBC BT-549 cells; PS 100 nM + methotrexate 500 nM, 24 h, dark",85%
same,"cell inhibition (%), combination with methotrexate","TNBC BT-549 cells; PS 100 nM + methotrexate 500 nM, 24 h, light 0.96 J cm−2",42%
same,"cell inhibition (%), combination with paclitaxel","TNBC BT-549 cells; PS 100 nM + paclitaxel 50 nM, 24 h, light 0.96 J cm−2",65%
same,"cell survival, co-treatment with paclitaxel upon light","TNBC BT-549 cells; PS 100 nM + paclitaxel 50 nM, light, 1440 min",35%
same,"chemophotodynamic potency against TNBC cells, summary","TNBC BT-549 cells; PS 100 nM alone or in combination, light",better activity against TNBC cells than the starting compound MePheo
same,"cell survival, PS alone","TNBC BT-549 cells; PS 100 nM, light 0.96 J/cm^2, 1440 min, 0.1 µM",82% and 81%
same,"cytotoxicity in the absence of light, PS alone","TNBC BT-549 cells; PS 500 nM, dark",No cytotoxicity
same,combination therapy vs monotherapy (doxorubicin),"TNBC BT-549 cells; PS + doxorubicin, light",better photodynamic effect when co-treated with doxorubicin than PS-treatment alone
same,combination therapy vs monotherapy (fluorouracil),"TNBC BT-549 cells; PS + fluorouracil, light",best compared to monotherapy alone and with the other PSs used
same,cell viability reduction (difference) vs PS alone,"TNBC BT-549 cells; PS at lower concentration (CPA: 50 nM) + methotrexate 500 nM, light",10%
same,combination index (CI) with methotrexate,TNBC cells [1],1.57
same,synergism vs additive vs antagonism effect with methotrexate,TNBC cells [1],"(A) (A (1.45-3.3), antagonism)"
same,combination index (CI) with cisplatin,TNBC cells [2]; PS 50 nM + cisplatin 25 μM,0.99
same,synergism vs additive vs antagonism effect with cisplatin,TNBC cells [2]; PS 50 nM + cisplatin 25 μM,"(NA) (NA (0.9-1.10), nearly additive)"
same,combination index (CI) with doxorubicin,TNBC cells [2]; PS 50 nM + doxorubicin 500 nM,2.44
same,synergism vs additive vs antagonism effect with doxorubicin,TNBC cells [2]; PS 50 nM + doxorubicin 500 nM,"(A) (A (1.45-3.3), antagonism)"
same,"ranking of combination partners based on CI, decreasing order",TNBC cells [2]; PS 50 nM + drug,fluorouracil>paclitaxel>cisplatin
same,combination index (CI) with fluorouracil,TNBC cells [2]; PS 50 nM + fluorouracil 25 μM,0.48
same,synergism vs additive vs antagonism effect with fluorouracil,TNBC cells [2]; PS 50 nM + fluorouracil 25 μM,"(S) (S (0.3-0.7), synergism)"
same,combination index (CI) with paclitaxel,TNBC cells [2]; PS 50 nM + paclitaxel 50 nM,0.74
same,synergism vs additive vs antagonism effect with paclitaxel,TNBC cells [2]; PS 50 nM + paclitaxel 50 nM,"(MS) (MS (0.7-0.85), moderate synergism)"
same,"cell morphology, PS co-treated with cisplatin, light","human TNBC BT-549 cells; PS 50 nM + cisplatin 25 μM, light 0.48 J/cm^2 (FIG. 18S-T)",a significant number of shrunk cells and chromatin condensation can be seen
same,"cell morphology, PS co-treated with doxorubicin","human TNBC BT-549 cells; PS 50 nM + doxorubicin 500 nM, irradiated",No significant difference
same,"cell morphology, PS co-treated with methotrexate, light","human TNBC BT-549 cells; PS 50 nM + methotrexate 500 nM, light (FIG. 18X-Y)",Very few cells exhibit chromatin condensation
same,"cell morphology, PS co-treated with paclitaxel","human TNBC BT-549 cells; PS 50 nM + paclitaxel 50 nM, light (FIG. 18M-O)",shrunk cells and chromatin fragmentation are evident
same,"cell morphology, PS-treated then light","human TNBC BT-549 cells; PS 50 nM, 24 h, light (FIG. 18F-H)",not as obvious
same,preferred mode of cell death,human TNBC BT-549 cells; PS co-treated with paclitaxel or cisplatin,apoptosis
